According to publication PMC7305236, “The atypical chemokine receptor ACKR3/CXCR7 is a broad-spectrum scavenger for opioid peptides” (Nature Communications, 2020):
Where two headings read alike, the source gives them in different places. Starred links: 1 amine or outer side, 2 acyl side, 3 side chain; linkers in the order of their positions; H or OH if unused. Non-standard residues stand in square brackets, D forms with d. Residues, ends and D or L forms follow the SMILES beside them. X1 = N[C@@H](Cc1ccccc1)CN(CC(=O)[*:2])[*:1]

Key:
Design in all cases: dose or concentration left out as unconfirmed
[1] = target: T1, CCR2 (Homo sapiens, UniProt P41597); assay: Figure S2a opioid peptide screen on chemokine receptors; format: cell-based
T1 construct: expressed in transfected cells
T1 sequence (P41597 1-360 isoform P41597-2): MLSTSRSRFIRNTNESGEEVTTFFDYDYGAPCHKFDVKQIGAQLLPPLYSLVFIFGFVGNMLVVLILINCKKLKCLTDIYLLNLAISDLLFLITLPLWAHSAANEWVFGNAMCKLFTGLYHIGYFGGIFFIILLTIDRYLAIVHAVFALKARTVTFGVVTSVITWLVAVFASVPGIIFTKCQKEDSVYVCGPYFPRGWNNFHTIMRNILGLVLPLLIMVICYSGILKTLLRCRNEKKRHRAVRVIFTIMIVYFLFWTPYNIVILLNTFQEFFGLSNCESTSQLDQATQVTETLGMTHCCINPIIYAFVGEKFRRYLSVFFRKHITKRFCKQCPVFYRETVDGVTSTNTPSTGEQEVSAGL

[2] = target: T2, CCR9 (Homo sapiens, UniProt P51686); assay: as above; format: cell-based
T2 construct: expressed in transfected cells
T2 sequence (P51686 1-369): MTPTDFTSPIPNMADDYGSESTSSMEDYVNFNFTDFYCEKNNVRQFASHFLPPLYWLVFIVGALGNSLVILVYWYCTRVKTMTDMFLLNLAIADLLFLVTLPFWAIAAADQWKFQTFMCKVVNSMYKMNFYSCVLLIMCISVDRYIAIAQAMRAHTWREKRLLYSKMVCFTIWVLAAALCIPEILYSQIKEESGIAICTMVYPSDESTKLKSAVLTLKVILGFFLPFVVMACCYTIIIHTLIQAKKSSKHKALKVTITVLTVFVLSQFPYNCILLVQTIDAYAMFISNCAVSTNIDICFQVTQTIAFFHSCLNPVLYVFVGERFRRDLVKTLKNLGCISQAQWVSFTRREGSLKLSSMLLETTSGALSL

[3] = target: T3, CXCR3B (Homo sapiens, UniProt P49682); assay: as above; format: cell-based
T3 construct: expressed in transfected cells; host or cells: U87 cells
T3 sequence (P49682 1-415 isoform P49682-2): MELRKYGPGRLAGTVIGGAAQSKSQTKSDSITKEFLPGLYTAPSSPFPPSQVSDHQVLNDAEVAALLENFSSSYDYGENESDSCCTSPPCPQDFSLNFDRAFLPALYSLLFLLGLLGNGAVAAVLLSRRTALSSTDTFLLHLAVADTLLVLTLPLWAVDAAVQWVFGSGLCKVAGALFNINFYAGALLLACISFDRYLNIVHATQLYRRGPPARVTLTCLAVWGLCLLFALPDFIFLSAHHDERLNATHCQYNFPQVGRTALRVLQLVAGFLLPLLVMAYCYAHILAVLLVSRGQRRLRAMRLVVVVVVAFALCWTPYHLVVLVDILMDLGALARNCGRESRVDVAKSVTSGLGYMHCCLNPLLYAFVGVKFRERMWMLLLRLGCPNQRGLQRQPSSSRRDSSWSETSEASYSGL

[4] = target: T4, CXCR4 (Homo sapiens, UniProt P61073); assay: cell-based
T4 construct: expressed in transfected cells; host or cells: U87, transient cotransfection of pNBe vectors

[5] = target: T5, CXCR5 (Homo sapiens, UniProt P32302); assay: Figure S2a opioid peptide screen on chemokine receptors; format: cell-based
T5 construct: expressed in transfected cells
T5 sequence (P32302 1-372): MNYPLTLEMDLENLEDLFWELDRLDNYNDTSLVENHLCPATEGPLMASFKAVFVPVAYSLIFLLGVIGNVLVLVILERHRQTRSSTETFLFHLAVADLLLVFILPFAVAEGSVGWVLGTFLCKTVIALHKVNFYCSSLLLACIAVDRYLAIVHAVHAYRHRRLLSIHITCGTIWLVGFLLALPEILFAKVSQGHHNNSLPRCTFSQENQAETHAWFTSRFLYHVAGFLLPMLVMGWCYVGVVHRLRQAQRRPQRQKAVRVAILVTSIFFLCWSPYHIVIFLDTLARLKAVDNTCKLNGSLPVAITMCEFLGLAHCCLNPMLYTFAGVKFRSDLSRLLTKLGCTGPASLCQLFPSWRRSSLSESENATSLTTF

[6] = target: ACKR3 (Homo sapiens, UniProt P25106); assay: cell-based; conditions: read-out: ACKR3 activity, ctrl+ = 100, Figure S2a
[7] = replicate 1, read-out: CCR2 activity, ctrl+ = 100
[8] = replicate 2, read-out: CCR2 activity, ctrl+ = 100
[9] = replicate 1, read-out: CCR9 activity, ctrl+ = 100
[10] = replicate 2, read-out: CCR9 activity, ctrl+ = 100
[11] = replicate 1, read-out: CXCR3B activity, ctrl+ = 100
[12] = replicate 2, read-out: CXCR3B activity, ctrl+ = 100
[13] = Figure S2a, replicate 1, read-out: CXCR4 activity, ctrl+ = 100
[14] = Figure S2a, replicate 2, read-out: CXCR4 activity, ctrl+ = 100
[15] = replicate 1, read-out: CXCR5 activity, ctrl+ = 100
[16] = replicate 2, read-out: CXCR5 activity, ctrl+ = 100
[17] = replicate 3, read-out: CCR2 activity, ctrl+ = 100
[18] = replicate 3, read-out: CCR9 activity, ctrl+ = 100
[19] = replicate 3, read-out: CXCR3B activity, ctrl+ = 100
[20] = Figure S2a, replicate 3, read-out: CXCR4 activity, ctrl+ = 100
[21] = replicate 3, read-out: CXCR5 activity, ctrl+ = 100

T4 sequence (P61073 whole entry): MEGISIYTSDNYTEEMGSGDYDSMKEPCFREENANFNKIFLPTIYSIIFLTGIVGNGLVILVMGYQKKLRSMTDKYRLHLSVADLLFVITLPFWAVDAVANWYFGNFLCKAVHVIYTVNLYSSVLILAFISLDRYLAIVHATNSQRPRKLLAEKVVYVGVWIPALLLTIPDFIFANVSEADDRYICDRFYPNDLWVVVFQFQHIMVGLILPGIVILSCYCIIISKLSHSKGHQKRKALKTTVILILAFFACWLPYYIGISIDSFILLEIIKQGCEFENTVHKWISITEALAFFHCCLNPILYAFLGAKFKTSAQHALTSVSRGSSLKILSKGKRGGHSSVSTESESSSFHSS
Chain of ACKR3 (P25106 whole entry): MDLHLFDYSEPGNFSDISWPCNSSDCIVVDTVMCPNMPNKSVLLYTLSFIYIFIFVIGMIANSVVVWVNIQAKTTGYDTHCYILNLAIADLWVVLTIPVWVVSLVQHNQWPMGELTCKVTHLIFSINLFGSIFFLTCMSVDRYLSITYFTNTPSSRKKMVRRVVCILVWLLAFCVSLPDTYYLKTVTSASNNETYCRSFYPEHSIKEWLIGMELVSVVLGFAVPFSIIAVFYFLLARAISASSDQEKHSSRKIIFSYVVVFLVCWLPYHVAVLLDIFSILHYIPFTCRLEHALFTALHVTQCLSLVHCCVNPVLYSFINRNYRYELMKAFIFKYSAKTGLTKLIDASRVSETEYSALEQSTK

Row | SMILES | activation [1, 7] [%] | activation [1, 8] [%] | activation [2, 9] [%] | activation [2, 10] [%] | activation [3, 11] [%] | activation [3, 12] [%] | activation [4, 13] [%] | activation [4, 14] [%] | activation [5, 15] [%] | activation [5, 16] [%] | activation ([6]; replicate 1) [%] | activation ([6]; replicate 2) [%] | activation [1, 17] [%] | activation [2, 18] [%] | activation [3, 19] [%] | activation [4, 20] [%] | activation [5, 21] [%] | activation ([6]; replicate 3) [%] | also measured
1 | CC[C@H](C)[C@H](NC(=O)[C@H](CCCNC(=N)N)NC(=O)[C@H](CCCNC(=N)N)NC(=O)[C@H](CC(C)C)NC(=O)[C@H](Cc1ccccc1)NC(=O)CNC(=O)CNC(=O)[C@@H](N)Cc1ccc(O)cc1)C(=O)N[C@@H](CCCNC(=N)N)C(=O)N1CCC[C@H]1C(=O)N[C@@H](CCCCN)C(=O)N[C@@H](CC(C)C)C(=O)N[C@@H](CCCCN)C(=O)O [Dynorphin 1-13] | -0.833 | -2.52 | -2.31 | -1.58 | 3.92 | -5.01 | 13.2 | -40.8 | -0.575 | -5.55 | 136 | 52.9 |  |  |  |  |  |  | 
2 | CC(C)C[C@H](NC(=O)[C@H](CCCCN)NC(=O)[C@H](CCCN=C(N)N)NC(=O)[C@H](C)NC(=O)[C@H](CO)NC(=O)[C@H](CCCCN)NC(=O)[C@H](CCCN=C(N)N)NC(=O)[C@H](C)NC(=O)CNC(=O)[C@@H](NC(=O)[C@H](Cc1ccccc1)NC(=O)CNC(=O)CNC(=O)[C@@H](N)Cc1ccccc1)[C@@H](C)O)C(=O)N[C@@H](C)C(=O)N[C@@H](CC(N)=O)C(=O)N[C@@H](CCC(N)=O)C(=O)O [Nociceptin] | -0.0919 | -3.09 | 0.361 | 3.44 | -0.23 | -6.64 | 3.24 | -19.8 | -2.94 | -7.28 |  | 1.08 |  |  |  |  |  |  | 
3 | CSCC[C@H](NC(=O)[C@H](Cc1ccccc1)NC(=O)CNC(=O)CNC(=O)[C@@H](N)Cc1ccc(O)cc1)C(=O)N[C@@H](CCCNC(=N)N)C(=O)N[C@@H](CCCNC(=N)N)C(=O)N[C@H](C(N)=O)C(C)C [Adrenorphin] | -0.901 | -1.07 | 0.345 | -0.997 | 3.73 | 1.55 | -0.233 | 14 | -2.55 | -4.15 | 111 | 55.3 | -1.1 | 2.74 | 0.555 | 3.91 | 2.83 | 84.5 | 
4 | C[C@H](NC(=O)CNC(=O)[C@@H](NC(=O)[C@H](Cc1ccccc1)NC(=O)CNC(=O)CNC(=O)[C@@H](N)Cc1ccccc1)[C@@H](C)O)C(=O)N[C@@H](CCCNC(=N)N)C(=O)N[C@@H](CCCCN)C(=O)N[C@@H](CO)C(=O)N[C@@H](C)C(=O)N[C@@H](CCCNC(=N)N)C(=O)N[C@@H](CCCCN)C(N)=O [Nociceptin 1-13] | 0.793 | -0.93 | -3.6 | -1.89 | -2.86 | 1.14 | 20.2 | -3.76 | -3.96 | -2.66 | 19.7 | 20.3 | 1.52 | 2.5 | 7.41 | 28.2 | -1.89 | 51.3 | 
5 | CC[C@H](C)[C@H](NC(=O)[C@H](CCCNC(=N)N)NC(=O)[C@H](CCCNC(=N)N)NC(=O)[C@H](CC(C)C)NC(=O)[C@H](Cc1ccccc1)NC(=O)CNC(=O)CNC(=O)[C@@H](N)Cc1ccc(O)cc1)C(=O)N[C@@H](CCCNC(=N)N)C(=O)N1CCC[C@H]1C(=O)N[C@@H](CCCCN)C(=O)N[C@@H](CC(C)C)C(=O)N[C@@H](CCCCN)C(=O)N[C@@H](Cc1c[nH]c2ccccc12)C(=O)N[C@@H](CC(=O)O)C(=O)N[C@@H](CC(N)=O)C(=O)N[C@@H](CCC(N)=O)C(=O)O [Dynorphin A] | -0.0585 | -2.61 | 0.116 | -0.279 | -2.77 | 1.06 | -6.67 | -56.8 | -1.81 | -4.52 | 127 | 60.7 | -0.105 | 10.9 | -1.99 | 36.5 | 9.35 | 99 | 
6 | C[C@H](NC(=O)CNC(=O)[C@@H](NC(=O)[C@H](Cc1ccccc1)NC(=O)CNC(=O)CNC[C@@H](N)Cc1ccccc1)[C@@H](C)O)C(=O)N[C@@H](CCCNC(=N)N)C(=O)N[C@@H](CCCCN)C(=O)N[C@@H](CO)C(=O)N[C@@H](C)C(=O)N[C@@H](CCCNC(=N)N)C(=O)N[C@@H](CCCCN)C(N)=O [FG Nociceptin 1-13] (H-[X1]GFTGARKSARK-NH2) | -0.148 | -0.651 | -2.13 | 0.443 | -0.717 | 1.26 | 1.4 | -4.91 | -5.41 | -2.11 | 61.5 | 58.4 | 0.99 | 0.538 | 8.05 | 27.5 | -0.496 | 66 | 
7 | CSCC[C@H](NC(=O)[C@H](Cc1ccccc1)NC(=O)CNC(=O)CNC(=O)[C@@H](N)Cc1ccc(O)cc1)C(=O)N[C@@H](CCCNC(=N)N)C(=O)N[C@@H](CCCNC(=N)N)C(=O)N[C@H](C(=O)NCC(=O)N[C@@H](CCCNC(=N)N)C(=O)N1CCC[C@H]1C(=O)N[C@@H](CCC(=O)O)C(=O)N[C@@H](Cc1c[nH]c2ccccc12)C(=O)N[C@@H](Cc1c[nH]c2ccccc12)C(=O)N[C@@H](CCSC)C(=O)N[C@@H](CC(=O)O)C(=O)N[C@@H](Cc1ccc(O)cc1)C(=O)N[C@@H](CCC(N)=O)C(=O)N[C@@H](CCCCN)C(=O)N[C@@H](CCCNC(=N)N)C(=O)N[C@@H](Cc1ccc(O)cc1)C(=O)NCC(=O)O)C(C)C [BAM22] | -0.243 | -1.08 | -0.202 | -2.13 | -1.43 | 0.626 |  |  | -1.51 | -4.48 | 104 | 61.3 | 1.22 | 5.56 | 5.18 |  | -1.8 | 104 | activation ([4]; read-out: CXCR4 activity, ctrl+ = 100, Figure S2a, replicate 1): 22.9%; activation ([4]; read-out: CXCR4 activity, ctrl+ = 100, Figure S2a, replicate 2): 27.7%; activation ([4]; read-out: CXCR4 activity, ctrl+ = 100, Figure S2a, replicate 3): -6.34%
